Biological target: T1, Rv0888 (Mycobacterium tuberculosis, UniProt P9WKQ1)
T1 construct: gene spmT
Test: DNase inhibition, circular plasmid DNA, agarose gel and A260 spectrophotometry
Type: biochemical
Details: pH 6.5, 5 mM CaCl2, 5 mM MnCl2, 41 °C, 1 h

T1 sequence (P9WKQ1 32-490 limits assumed): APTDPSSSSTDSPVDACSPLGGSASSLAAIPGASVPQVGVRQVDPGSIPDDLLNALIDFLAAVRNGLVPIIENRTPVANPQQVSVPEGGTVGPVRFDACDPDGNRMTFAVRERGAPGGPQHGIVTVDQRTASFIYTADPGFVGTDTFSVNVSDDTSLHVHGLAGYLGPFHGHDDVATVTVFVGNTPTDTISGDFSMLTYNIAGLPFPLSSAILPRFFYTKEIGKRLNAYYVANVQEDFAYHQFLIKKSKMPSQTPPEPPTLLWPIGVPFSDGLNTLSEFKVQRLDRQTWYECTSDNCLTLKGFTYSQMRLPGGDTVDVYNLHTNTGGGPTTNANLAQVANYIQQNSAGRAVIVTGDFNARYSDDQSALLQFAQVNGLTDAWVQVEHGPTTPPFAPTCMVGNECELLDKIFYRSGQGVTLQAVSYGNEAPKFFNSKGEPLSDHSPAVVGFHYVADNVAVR

CC(C)=CCc1c(O)ccc(C(=O)/C=C/c2ccc(O)cc2)c1O [Corylifolinin]
relative DNase activity at 0.5, 1, 2 mM: inhibited by four Chinese medicine monomers (Oleuropein, 6-Gingerol, Corylifolinin and Acteoside)

C[C@@H]1O[C@@H](O[C@@H]2[C@@H](O)[C@H](OCCc3ccc(O)c(O)c3)O[C@H](CO)[C@H]2OC(=O)/C=C/c2ccc(O)c(O)c2)[C@H](O)[C@H](O)[C@H]1O [Acteoside]
relative DNase activity at 0.5, 1, 2 mM: inhibited by four Chinese medicine monomers (Oleuropein, 6-Gingerol, Corylifolinin and Acteoside)

CCCCC[C@H](O)CC(=O)CCc1ccc(O)c(OC)c1 [6-Gingerol]
relative DNase activity at 0.5, 1, 2 mM: inhibited by four Chinese medicine monomers (Oleuropein, 6-Gingerol, Corylifolinin and Acteoside)

C/C=C1/[C@H](O[C@@H]2O[C@H](CO)[C@@H](O)[C@H](O)[C@H]2O)OC=C(C(=O)OC)[C@H]1CC(=O)OCCc1ccc(O)c(O)c1 [Oleuropein]
relative DNase activity at 0.5, 1, 2 mM: inhibited by four Chinese medicine monomers (Oleuropein, 6-Gingerol, Corylifolinin and Acteoside)
